What was measured:
[1] = target: T1, Non-receptor tyrosine-protein kinase TYK2 (Homo sapiens, UniProt P29597); assay: Inhibition of fluorescein-labeled kinase tracer binding to His-TVMV-fused TYK2 JH2 domain (575 to 869 residues) (unknown origin) measured after 90 mins by HTRF assay
[2] = target: T1, Non-receptor tyrosine-protein kinase TYK2; assay: Inhibition of TYK2 JH1 domain (unknown origin)
[3] = target: Tyrosine-protein kinase JAK1 (Homo sapiens, UniProt P23458); assay: Inhibition of JAK1 JH1 domain (unknown origin)
[4] = target: Tyrosine-protein kinase JAK2 (Homo sapiens, UniProt O60674); assay: Inhibition of JAK2 JH1 domain (unknown origin)
JAK2/TYK2 = JAK2/TYK2 (Homo sapiens, UniProt O60674+P29597); assay: Inhibition of TYK2/JAK2 in IL23-stimulated human Kit225 cells by steady-glo luciferase assay
JAK1/TYK2 = JAK1/TYK2 (Homo sapiens, UniProt P23458+P29597); assay: Inhibition of TYK2/JAK1 in IFNalpha-stimulated human Kit225 cells by steady-glo luciferase assay
JAK3/JAK1 = JAK3/JAK1 (Homo sapiens, UniProt P23458+P52333); assay: Inhibition of JAK1/JAK3 (unknown origin) in IL-2 stimulated cells by cell based assay
JAK2/JAK1 = JAK2/JAK1 (Homo sapiens, UniProt O60674+P23458); assay: Inhibition of JAK1/JAK2 (unknown origin) in GM-CSF stimulated cells by cell based assay
[5] = target: T1, Non-receptor tyrosine-protein kinase TYK2; assay: Inhibition of TYK2 JH2 domain in human whole blood assessed as inhibition of IFNalpha-induced STAT5 phosphorylation preincubated for 1 hr followed by IFNalpha stimulation and measured after 15 mins by fluorescence assay; format: tissue-based
[6] = target: 3',5'-cyclic-AMP phosphodiesterase 4D (Homo sapiens, UniProt Q08499); assay: Inhibition of [3H]cAMP binding to recombinant human His-Tb fused PDE4D2 (86 to 413 residues) expressed in Escherichia coli using [3H]cAMP as substrate preincubated for 10 mins followed by [3H]cAMP addition and measured after 1 hr by scintillation proximity assay
[7] = Permeability across apical to basolateral side in human Caco2 cells; format: ADME, cell-based; conditions: Caco-2, read-out: permeability
[8] = Efflux ratio of permeability in human Caco2; format: ADME, cell-based; conditions: Caco-2
[9] = Metabolic stability in human liver microsomes assessed as parent compound remaining after 10 mins; format: ADME, Microsome; conditions: read-out: Stability
[10] = Metabolic stability in rat liver microsomes assessed as parent compound remaining after 10 mins; format: ADME, Microsome; conditions: read-out: Stability
[11] = Metabolic stability in mouse liver microsomes assessed as parent compound remaining after 10 mins; format: ADME, Microsome; conditions: read-out: Stability
[12] = Protein binding in human plasma assessed as unbound fraction; format: ADME, cell-free
[13] = Cmax in mouse at 10 mg/kg, po; format: ADME, organism-based; parameters: dose 10 mg/kg, route oral; conditions: in vivo
[14] = AUClast in mouse at 10 mg/kg, po; format: ADME, organism-based; parameters: dose 10 mg/kg, route oral, time 0 - last; conditions: in vivo
[15] = target: Mast/stem cell growth factor receptor Kit (Homo sapiens, UniProt P10721); assay: Inhibition of cKIT (unknown origin)
Sequence of Mast/stem cell growth factor receptor Kit (P10721 whole entry, the tested form may be a part): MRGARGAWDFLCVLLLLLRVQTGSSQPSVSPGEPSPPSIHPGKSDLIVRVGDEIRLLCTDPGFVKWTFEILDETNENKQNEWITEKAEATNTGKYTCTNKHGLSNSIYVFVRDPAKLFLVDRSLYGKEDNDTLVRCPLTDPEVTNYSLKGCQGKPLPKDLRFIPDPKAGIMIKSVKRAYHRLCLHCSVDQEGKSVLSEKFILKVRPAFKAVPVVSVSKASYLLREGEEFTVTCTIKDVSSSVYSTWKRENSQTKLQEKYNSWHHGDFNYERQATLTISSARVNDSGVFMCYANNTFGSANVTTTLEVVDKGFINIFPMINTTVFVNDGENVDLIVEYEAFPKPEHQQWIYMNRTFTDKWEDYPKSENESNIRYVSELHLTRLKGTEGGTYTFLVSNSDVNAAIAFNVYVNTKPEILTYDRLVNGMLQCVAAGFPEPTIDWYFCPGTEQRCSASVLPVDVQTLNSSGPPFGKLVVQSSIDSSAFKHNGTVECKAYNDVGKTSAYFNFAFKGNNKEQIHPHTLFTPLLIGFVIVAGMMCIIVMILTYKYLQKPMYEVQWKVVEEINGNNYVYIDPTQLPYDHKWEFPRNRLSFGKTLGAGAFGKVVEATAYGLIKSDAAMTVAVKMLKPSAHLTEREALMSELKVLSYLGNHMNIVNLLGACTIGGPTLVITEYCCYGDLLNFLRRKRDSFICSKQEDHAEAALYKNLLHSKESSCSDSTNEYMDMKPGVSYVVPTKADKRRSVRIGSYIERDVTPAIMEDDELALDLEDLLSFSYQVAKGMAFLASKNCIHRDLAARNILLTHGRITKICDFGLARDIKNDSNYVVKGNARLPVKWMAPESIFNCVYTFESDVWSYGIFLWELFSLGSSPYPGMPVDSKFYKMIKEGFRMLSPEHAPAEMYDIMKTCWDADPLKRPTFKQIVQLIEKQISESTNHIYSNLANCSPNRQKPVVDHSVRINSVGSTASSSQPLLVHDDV

[16] = target: Non-receptor tyrosine-protein kinase TYK2 (Mus musculus, UniProt Q9R117); assay: Inhibition of TYK2 JH2 domain in mouse whole blood assessed as inhibition of IFNalpha-induced STAT1 phosphorylation preincubated for 1 hr followed by IFNalpha stimulation and measured after 15 mins by fluorescence assay; format: tissue-based
Sequence of Non-receptor tyrosine-protein kinase TYK2 (Mus musculus, UniProt Q9R117) (Q9R117 whole entry, the tested form may be a part): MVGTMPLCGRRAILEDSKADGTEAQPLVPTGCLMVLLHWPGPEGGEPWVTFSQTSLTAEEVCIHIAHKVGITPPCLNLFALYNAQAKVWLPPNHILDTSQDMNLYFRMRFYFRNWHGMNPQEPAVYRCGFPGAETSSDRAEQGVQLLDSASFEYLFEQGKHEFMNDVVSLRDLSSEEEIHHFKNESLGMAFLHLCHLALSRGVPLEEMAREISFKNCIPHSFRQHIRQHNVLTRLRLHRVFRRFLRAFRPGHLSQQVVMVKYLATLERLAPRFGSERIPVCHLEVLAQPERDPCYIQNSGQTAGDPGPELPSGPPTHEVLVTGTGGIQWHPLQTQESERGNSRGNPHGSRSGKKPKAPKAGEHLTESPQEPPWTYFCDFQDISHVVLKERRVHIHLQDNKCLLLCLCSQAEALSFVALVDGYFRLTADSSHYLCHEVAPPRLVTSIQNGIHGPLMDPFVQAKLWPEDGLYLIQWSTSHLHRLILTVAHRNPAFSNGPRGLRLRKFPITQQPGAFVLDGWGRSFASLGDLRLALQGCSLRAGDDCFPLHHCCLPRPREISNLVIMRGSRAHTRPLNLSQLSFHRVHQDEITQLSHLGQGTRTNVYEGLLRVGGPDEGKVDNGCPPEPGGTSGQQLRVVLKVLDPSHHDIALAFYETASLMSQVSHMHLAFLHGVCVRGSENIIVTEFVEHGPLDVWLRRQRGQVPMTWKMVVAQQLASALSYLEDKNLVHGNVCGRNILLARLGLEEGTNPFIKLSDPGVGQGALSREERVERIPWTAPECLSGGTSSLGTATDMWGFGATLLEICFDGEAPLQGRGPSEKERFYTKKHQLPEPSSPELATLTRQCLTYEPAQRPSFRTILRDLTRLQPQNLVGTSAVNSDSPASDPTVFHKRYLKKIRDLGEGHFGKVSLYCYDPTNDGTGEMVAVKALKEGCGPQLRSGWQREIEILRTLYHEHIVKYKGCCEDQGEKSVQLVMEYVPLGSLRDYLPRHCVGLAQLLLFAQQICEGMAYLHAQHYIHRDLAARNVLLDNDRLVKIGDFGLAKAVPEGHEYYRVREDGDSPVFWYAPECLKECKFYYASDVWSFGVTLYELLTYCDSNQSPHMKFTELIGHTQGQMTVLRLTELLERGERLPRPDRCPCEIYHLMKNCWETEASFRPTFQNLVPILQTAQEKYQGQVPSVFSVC

[17] = Half life in human liver microsomes; format: ADME, Microsome
[18] = Half life in rat liver microsomes; format: ADME, Microsome
[19] = Half life in mouse liver microsomes; format: ADME, Microsome
[20] = Half life in cynomolgus monkey liver microsomes; format: ADME, Macaca fascicularis, Microsome
[21] = Half life in dog liver microsomes; format: ADME, Canis lupus familiaris, Microsome
[22] = Partition coefficient, log P of compound by HPLC analysis; format: physicochemical; conditions: octanol/water
[23] = Cmax in mouse at 10 mg/kg, po after 7 hrs; format: ADME, organism-based; parameters: dose 10 mg/kg, route oral; conditions: in vivo
[24] = AUClast in mouse at 10 mg/kg, po after 7 hrs; format: ADME, organism-based; parameters: time < 7 hr, dose 10 mg/kg, route oral; conditions: in vivo
[25] = target: T1, Non-receptor tyrosine-protein kinase TYK2; assay: Inhibition of TYK2 JH2 (unknown origin) by morrison titration assay; conditions: read-out: Ki(app)
[26] = target: T2, Voltage-gated inwardly rectifying potassium channel KCNH2 (Homo sapiens, UniProt Q12809); assay: Inhibition of human ERG by patch clamp assay
T2 sequence (Q12809 whole entry): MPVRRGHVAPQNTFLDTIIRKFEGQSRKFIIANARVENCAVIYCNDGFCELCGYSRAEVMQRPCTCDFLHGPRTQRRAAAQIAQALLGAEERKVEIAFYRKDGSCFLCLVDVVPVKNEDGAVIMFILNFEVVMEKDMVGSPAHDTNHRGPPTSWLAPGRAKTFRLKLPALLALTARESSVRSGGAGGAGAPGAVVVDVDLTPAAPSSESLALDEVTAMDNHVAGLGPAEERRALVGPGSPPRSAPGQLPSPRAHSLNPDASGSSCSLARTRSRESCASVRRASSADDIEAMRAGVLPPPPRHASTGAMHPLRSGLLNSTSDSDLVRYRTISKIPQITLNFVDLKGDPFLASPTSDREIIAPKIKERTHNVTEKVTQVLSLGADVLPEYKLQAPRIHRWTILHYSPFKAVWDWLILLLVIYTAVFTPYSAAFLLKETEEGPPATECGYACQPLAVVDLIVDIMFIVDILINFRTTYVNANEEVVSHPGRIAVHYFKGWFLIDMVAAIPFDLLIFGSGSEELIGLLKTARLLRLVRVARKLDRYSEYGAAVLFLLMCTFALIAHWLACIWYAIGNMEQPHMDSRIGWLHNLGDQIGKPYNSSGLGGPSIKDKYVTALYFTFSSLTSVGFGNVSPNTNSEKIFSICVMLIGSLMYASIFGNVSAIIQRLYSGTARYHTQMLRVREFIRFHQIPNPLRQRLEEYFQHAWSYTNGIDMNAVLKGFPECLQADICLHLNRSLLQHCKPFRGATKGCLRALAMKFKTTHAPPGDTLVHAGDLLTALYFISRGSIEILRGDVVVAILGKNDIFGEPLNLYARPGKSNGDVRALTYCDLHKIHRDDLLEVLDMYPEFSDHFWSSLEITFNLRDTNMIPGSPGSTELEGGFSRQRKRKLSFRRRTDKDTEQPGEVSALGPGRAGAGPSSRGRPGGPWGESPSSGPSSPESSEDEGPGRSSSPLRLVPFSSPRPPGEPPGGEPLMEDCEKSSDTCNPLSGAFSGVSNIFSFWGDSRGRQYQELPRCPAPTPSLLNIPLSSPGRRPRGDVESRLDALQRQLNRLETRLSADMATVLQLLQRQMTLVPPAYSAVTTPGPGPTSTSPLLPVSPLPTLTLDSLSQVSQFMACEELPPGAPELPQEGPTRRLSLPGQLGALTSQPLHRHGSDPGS

[27] = target: T2, Voltage-gated inwardly rectifying potassium channel KCNH2; assay: Inhibition of human ERG by fluorescence polarization assay

T1 sequence (P29597 whole entry, the tested form may be a part): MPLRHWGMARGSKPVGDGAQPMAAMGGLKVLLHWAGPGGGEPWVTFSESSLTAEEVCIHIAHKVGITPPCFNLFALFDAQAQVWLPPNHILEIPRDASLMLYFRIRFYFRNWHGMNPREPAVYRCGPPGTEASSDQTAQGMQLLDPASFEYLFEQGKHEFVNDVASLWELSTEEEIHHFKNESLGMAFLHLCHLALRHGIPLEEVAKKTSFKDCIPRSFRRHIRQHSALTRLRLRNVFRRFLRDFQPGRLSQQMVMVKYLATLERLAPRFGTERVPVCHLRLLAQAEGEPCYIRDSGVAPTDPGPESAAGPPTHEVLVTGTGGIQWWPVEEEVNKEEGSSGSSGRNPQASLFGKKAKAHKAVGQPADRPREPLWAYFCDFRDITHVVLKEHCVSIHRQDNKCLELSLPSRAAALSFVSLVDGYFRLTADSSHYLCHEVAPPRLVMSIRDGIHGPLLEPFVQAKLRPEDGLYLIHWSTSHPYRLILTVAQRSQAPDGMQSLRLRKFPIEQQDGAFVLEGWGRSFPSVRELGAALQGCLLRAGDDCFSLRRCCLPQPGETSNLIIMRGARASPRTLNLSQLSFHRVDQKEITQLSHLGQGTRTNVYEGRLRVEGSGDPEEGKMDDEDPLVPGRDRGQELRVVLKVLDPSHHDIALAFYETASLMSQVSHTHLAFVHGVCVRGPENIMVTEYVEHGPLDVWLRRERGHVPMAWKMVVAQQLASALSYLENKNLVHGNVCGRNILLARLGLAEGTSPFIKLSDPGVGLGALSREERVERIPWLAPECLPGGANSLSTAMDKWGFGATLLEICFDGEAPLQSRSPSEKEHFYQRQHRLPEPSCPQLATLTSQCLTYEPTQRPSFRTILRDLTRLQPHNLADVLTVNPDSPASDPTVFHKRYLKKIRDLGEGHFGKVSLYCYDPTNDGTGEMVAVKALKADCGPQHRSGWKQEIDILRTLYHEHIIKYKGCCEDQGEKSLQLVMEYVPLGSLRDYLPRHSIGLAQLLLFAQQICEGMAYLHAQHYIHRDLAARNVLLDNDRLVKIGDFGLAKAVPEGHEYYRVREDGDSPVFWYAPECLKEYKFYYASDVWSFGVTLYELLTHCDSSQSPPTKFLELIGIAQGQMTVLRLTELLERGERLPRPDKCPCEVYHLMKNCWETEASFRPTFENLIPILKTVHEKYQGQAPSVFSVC

CNC(=O)c1cnc(Nc2ccc(F)cn2)cc1Nc1ccccc1C(N)=O
IC50 [1]: 0.0013 µM | IC50 [2]: > 2 µM | IC50 [3]: > 2 µM | IC50 [4]: > 2 µM | IC50 (JAK2/TYK2): 0.66 µM | IC50 (JAK1/TYK2): 0.32 µM | IC50 (JAK3/JAK1): > 12.5 µM | IC50 (JAK2/JAK1): > 12.5 µM | IC50 [5]: 0.53 µM | IC50 [6]: 10.4 µM | Papp A→B [7]: < 15 nm/s | efflux ratio [8]: > 35 | remaining at 10 min [9]: 94% | remaining at 10 min [10]: 83% | remaining at 10 min [11]: 82% | fraction unbound [12]: 0.263 | Cmax [13]: 0.036 µM | AUC(0-t) [14]: 0.15 µM·h

CNC(=O)c1cnc(NC(=O)C(C)C)cc1Nc1ccccc1S(C)(=O)=O
IC50 (JAK2/TYK2): 1.1 µM | IC50 (JAK1/TYK2): 4.4 µM | IC50 [5]: 5.2 µM | IC50 [15]: > 2 µM

NC(=O)c1ccccc1Nc1cc(Nc2ccc(F)cn2)ncc1C(=O)NC1CC1
IC50 [1]: 0.033 µM | IC50 [2]: > 2 µM | IC50 [3]: > 2 µM | IC50 [4]: > 2 µM | IC50 (JAK2/TYK2): 3.3 µM | IC50 (JAK1/TYK2): 5.6 µM | IC50 (JAK3/JAK1): > 12.5 µM | IC50 (JAK2/JAK1): > 12.5 µM

[2H]C([2H])([2H])NC(=O)c1nnc(NC(=O)C2CC2)cc1Nc1ccccc1S(C)(=O)=O
IC50 [1]: 0.0013 µM | IC50 [2]: 50 µM | IC50 [3]: > 2 µM | IC50 [4]: > 50 µM | IC50 (JAK1/TYK2): 0.0013 µM | IC50 [5]: 0.23 µM | Papp A→B [7]: 69 nm/s | efflux ratio [8]: 7.7 | IC50 [16]: 0.34 µM | half-life [17]: 1.83 h | half-life [18]: 1.35 h | half-life [19]: 0.8 h | half-life [20]: 1.12 h | half-life [21]: 1.25 h | logP [22]: 2.03 | Cmax [23]: 3.42 µM | AUC(0-t) at 7 h [24]: 6.61 µM·h | Ki [25]: 0.0008 µM | IC50 [26]: > 30 µM

CNC(=O)c1cnc(Nc2ccc(OC)cn2)cc1Nc1ccccc1S(C)(=O)=O
Papp A→B [7]: 29 nm/s | IC50 [15]: 0.83 µM

CNC(=O)c1cnc(NC(=O)C2CC2)cc1Nc1ccccc1S(C)(=O)=O
IC50 [1]: 0.0016 µM | IC50 (JAK2/TYK2): 0.43 µM | IC50 (JAK1/TYK2): 0.39 µM | IC50 [5]: 0.31 µM | Papp A→B [7]: 17 nm/s | efflux ratio [8]: 29 | IC50 [16]: 0.83 µM | IC50 [15]: > 2 µM | IC50 [27]: > 80 µM | half-life [17]: > 2 h | half-life [18]: 1.92 h | half-life [19]: 0.167 h | half-life [20]: 1.8 h | half-life [21]: 0.567 h | logP [22]: 1.89 | Cmax [23]: 0.19 µM | AUC(0-t) at 7 h [24]: 0.56 µM·h

CNC(=O)c1cnc(Nc2ccc(F)cn2)cc1Nc1ccccc1OC
IC50 [1]: 0.0052 µM | IC50 (JAK2/TYK2): 0.31 µM | IC50 (JAK1/TYK2): 0.51 µM | IC50 [5]: 3.3 µM | IC50 [6]: 9.2 µM | Papp A→B [7]: 267 nm/s | efflux ratio [8]: 0.4 | remaining at 10 min [9]: 52% | remaining at 10 min [10]: 28% | remaining at 10 min [11]: 35%

CNC(=O)c1cnc(Nc2ccc(F)cn2)cc1Nc1ccccc1SC
IC50 [1]: 0.0018 µM | IC50 (JAK2/TYK2): 0.33 µM | IC50 (JAK1/TYK2): 0.24 µM | IC50 [5]: 3.1 µM | IC50 [6]: 4.4 µM | Papp A→B [7]: 79 nm/s | efflux ratio [8]: 0.5 | remaining at 10 min [9]: 36% | remaining at 10 min [10]: 9% | remaining at 10 min [11]: 30%

CNC(=O)c1cnc(Nc2ncccn2)cc1Nc1ccccc1C(N)=O
IC50 [1]: 0.06 µM | IC50 (JAK2/TYK2): > 12.5 µM | IC50 (JAK1/TYK2): > 12.5 µM

CNC(=O)c1cnc(Nc2cc(C)ccn2)cc1Nc1ccccc1S(C)(=O)=O
IC50 (JAK2/TYK2): 0.027 µM | IC50 (JAK1/TYK2): 0.021 µM | IC50 [5]: 0.19 µM | Papp A→B [7]: 65 nm/s | efflux ratio [8]: 9 | IC50 [15]: > 2 µM | IC50 [27]: 16 µM

CNC(=O)c1cnc(Nc2ccccn2)cc1Nc1ccccc1C(N)=O
IC50 [1]: 0.0016 µM | IC50 (JAK2/TYK2): 0.28 µM | IC50 (JAK1/TYK2): 0.31 µM

[2H]C([2H])([2H])NC(=O)c1nnc(Nc2ccc(F)cn2)cc1Nc1ccccc1S(C)(=O)=O
IC50 [1]: 0.00058 µM | IC50 [5]: 0.2 µM | Papp A→B [7]: 143 nm/s | efflux ratio [8]: 3.4 | IC50 [16]: 0.38 µM | half-life [17]: 1.18 h | half-life [18]: 1.33 h | half-life [19]: 0.833 h | half-life [20]: 0.167 h | half-life [21]: 0.533 h | logP [22]: 2.77 | Cmax [23]: 3.89 µM | AUC(0-t) at 7 h [24]: 11.6 µM·h

Reference: ChEMBL document CHEMBL4414548 (J Med Chem, 2019)
